Source: patent publication US20260022142A1, “MACROCYCLIC IMMUNOMODULATORS” (Bristol-Myers Squibb Company, priority 2022, published 2026)
Bridge positions count the residues as written; N and C are the ends. Square brackets hold non-standard residues; d marks the D form. Peptide text beside a SMILES is read from it. * marks the point of attachment. Phe(4-CONH2) = NC(=O)c1ccc(C[C@H](N)C(=O)O)cc1; Phe(4-COOH) = N[C@@H](Cc1ccc(C(=O)O)cc1)C(=O)O; Bip = N[C@@H](Cc1ccc(-c2ccccc2)cc1)C(=O)O; Phe(3-Me) = Cc1cccc(C[C@H](N)C(=O)O)c1; Phe(4-F) = N[C@@H](Cc1ccc(F)cc1)C(=O)O; NH(CH2)12COOH = O=C(O)CCCCCCCCCCCCN*; Phe(2-F) = N[C@@H](Cc1ccccc1F)C(=O)O; Val(3-OH) = CC(C)(O)[C@H](N)C(=O)O; Val(3-F) = CC(C)(F)[C@H](N)C(=O)O; hArg = N=C(N)NCCCC[C@H](N)C(=O)O; Cha = N[C@@H](CC1CCCCC1)C(=O)O; Cit = NC(=O)NCCC[C@H](N)C(=O)O; 12Ado = NCCCCCCCCCCCC(=O)O; Carboxymethyl = O=C(O)C*; Orn = NCCC[C@H](N)C(=O)O; Aun = NCCCCCCCCCCC(=O)O; Dab = NCC[C@H](N)C(=O)O; Nva = CCC[C@H](N)C(=O)O; Dap = NC[C@H](N)C(=O)O; AEEA = NCCOCCOCC(=O)O

Target: T1, PD-1/PD-L1 interaction (PE-labeled human PD-L1-Ig binding to Jurkat cell line over-expressing human PD-1) (Homo sapiens, UniProt Q15116)
T1 construct: expressed in transfected cells; host or cells: Jurkat
Assay: Jurkat-PD-1 Cell Binding High-Content Screening Assay (CBA)
Assay type: cell-based
Details: Jurkat cell line over-expressing human PD-1; PE-labeled PD-L1-Ig 20 nM final; read-out: Jurkat hPD1-PDL1 IC50
Outline: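 Jurkat-hPD-1 cells, DMEM/10% FCS; cpd 2 h 37° C; PE-PD-L1-Ig 20 nM final, 1 h; 4% PFA fix + Hoechst 33342, 3× dPBS wash; high-content imaging read-out.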

T1 sequence (Q15116 25-288): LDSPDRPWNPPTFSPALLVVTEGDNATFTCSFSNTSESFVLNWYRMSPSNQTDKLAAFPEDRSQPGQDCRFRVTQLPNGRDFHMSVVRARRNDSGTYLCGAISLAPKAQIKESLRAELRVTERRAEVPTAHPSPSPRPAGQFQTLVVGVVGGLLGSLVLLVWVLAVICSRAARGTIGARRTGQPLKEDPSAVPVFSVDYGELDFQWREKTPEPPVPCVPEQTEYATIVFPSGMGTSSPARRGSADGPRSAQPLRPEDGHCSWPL

IC50 [nM]	Structure (SMILES)
26.9	Cc1cccc(C[C@@H]2NC(=O)[C@H](CC(=O)O)NC(=O)[C@H](Cc3ccc(OCC(=O)O)cc3)NC(=O)[C@H](CCCNC(=N)N)NC(=O)CSC[C@@H](C(=O)N[C@@H](CCN)C(=O)NCCCCCCCCCCC(=O)O)NC(=O)[C@H](CCCNC(N)=O)NC(=O)[C@H](C(C)C)NC(=O)[C@H](CC3CCCCC3)NC(=O)[C@H](CCN)NC(=O)[C@@H](CC(C)C)NC(=O)[C@H](CCCN)NC(=O)[C@H](Cc3ccc(O)cc3)NC(=O)[C@H](Cc3ccc(-c4ccccc4)cc3)NC(=O)[C@H](C(C)C)NC2=O)c1 [Compound 2723] ({CH2CO}-RY(Carboxymethyl)D[Phe(3-Me)]V[Bip]Y[Orn][dL][Dab][Cha]V[Cit]C[Dab][Aun]-OH; thioether N-14)
14	Cc1cccc(C[C@@H]2NC(=O)[C@H](CC(=O)O)NC(=O)[C@H](Cc3ccc(OCC(=O)O)cc3)NC(=O)[C@H](CN)NC(=O)CSC[C@@H](C(=O)N[C@@H](CCN)C(=O)NCCOCCOCC(=O)NCCCCCCCCCCC(=O)O)NC(=O)[C@H](CCC(=O)O)NC(=O)[C@H](C(C)C)NC(=O)[C@H](Cc3ccccc3F)NC(=O)[C@H](CCN)NC(=O)[C@@H](CC(C)C)NC(=O)[C@H](CCCN)NC(=O)[C@H](Cc3ccc(OCC(=O)O)cc3)NC(=O)[C@H](Cc3ccc(-c4ccccc4)cc3)NC(=O)[C@H](Cc3ccc(C(=O)O)cc3)NC2=O)c1 [Compound 1266] ({CH2CO}-[Dap]Y(Carboxymethyl)D[Phe(3-Me)][Phe(4-COOH)][Bip]Y(Carboxymethyl)[Orn][dL][Dab][Phe(2-F)]VEC[Dab][AEEA][Aun]-OH; thioether N-14)
28.8	CC(C)C[C@H]1NC(=O)[C@H](CCCN)NC(=O)[C@H](Cc2ccc(O)cc2)NC(=O)[C@H](Cc2ccc(-c3ccccc3)cc2)NC(=O)[C@H](Cc2ccc(OCC(=O)O)cc2)NC(=O)[C@H](Cc2ccc(F)cc2)NC(=O)[C@H](CC(=O)O)NC(=O)[C@H](Cc2ccc(OCC(=O)O)cc2)NC(=O)[C@H](CN)NC(=O)CSC[C@@H](C(=O)N[C@@H](CCN)C(=O)NCCOCCOCC(=O)NCCCCCCCCCCC(=O)O)NC(=O)[C@H](CCCN)NC(=O)[C@H](C(C)C)NC(=O)[C@H](CC2CCCCC2)NC(=O)[C@H](CCN)NC1=O [Compound 1298] ({CH2CO}-[Dap]Y(Carboxymethyl)D[Phe(4-F)]Y(Carboxymethyl)[Bip]Y[Orn][dL][Dab][Cha]V[Orn]C[Dab][AEEA][Aun]-OH; thioether N-14)
28.3	Cc1cccc(C[C@@H]2NC(=O)[C@H](CC(=O)O)NC(=O)[C@H](Cc3ccc(OCC(=O)O)cc3)NC(=O)[C@H](CN)NC(=O)CSC[C@@H](C(=O)N[C@@H](CCN)C(=O)NCCOCCOCC(=O)NCCCCCCCCCCC(=O)O)NC(=O)[C@H](CCCN)NC(=O)[C@H](Cc3ccc(O)cc3)NC(=O)[C@H](CC3CCCCC3)NC(=O)[C@H](CCN)NC(=O)[C@@H](CC(C)C)NC(=O)[C@H](CCCN)NC(=O)[C@H](C(C)C)NC(=O)[C@H](Cc3ccc(-c4ccccc4)cc3)NC(=O)[C@H](Cc3ccc(O)cc3)NC2=O)c1 [Compound 2574] ({CH2CO}-[Dap]Y(Carboxymethyl)D[Phe(3-Me)]Y[Bip]V[Orn][dL][Dab][Cha]Y[Orn]C[Dab][AEEA][Aun]-OH; thioether N-14)
33	CC(C)C[C@H]1NC(=O)[C@H](CCCN)NC(=O)[C@H](CCC(=O)O)NC(=O)[C@H](Cc2ccc(-c3ccccc3)cc2)NC(=O)[C@H](C(C)C)NC(=O)[C@H](Cc2c[nH]c3ccccc23)NC(=O)[C@H](CC(=O)O)NC(=O)[C@H](Cc2ccc(C(=O)O)cc2)NC(=O)[C@H](Cc2ccc(OCC(=O)O)cc2)NC(=O)CSC[C@@H](C(=O)NCC(=O)NCCOCCOCC(=O)N[C@@H](CCCN)C(=O)NCCCCCCCCCCCC(=O)O)NC(=O)[C@H](CO)NC(=O)[C@H](C(C)C)NC(=O)[C@H](CC2CCCCC2)NC(=O)[C@H](CCN)NC1=O [Compound 3062] ({CH2CO}-Y(Carboxymethyl)[Phe(4-COOH)]DWV[Bip]E[Orn][dL][Dab][Cha]VSCG[AEEA][Orn][12Ado]-OH; thioether N-14)
10.1	CCC[C@@H]1NC(=O)CSC[C@@H](C(=O)N[C@@H](CCN)C(=O)NCCOCCOCC(=O)NCCCCCCCCCCCCC(=O)O)NC(=O)[C@H](CO)NC(=O)[C@H](C(C)(C)O)NC(=O)[C@H](CC2CCCCC2)NC(=O)[C@H](CCN)NC(=O)[C@@H](CC(C)C)NC(=O)[C@H](CCCN)NC(=O)[C@H](Cc2ccc(OCC(=O)O)cc2)NC(=O)[C@H](Cc2ccc(-c3ccccc3)cc2)NC(=O)[C@H](Cc2ccc(OCC(=O)O)cc2)NC(=O)[C@H](Cc2cccc(C)c2)NC(=O)[C@H](CC(=O)O)NC(=O)[C@H](Cc2ccc(C(=O)O)cc2)NC1=O [Compound 2254] ({CH2CO}-[Nva][Phe(4-COOH)]D[Phe(3-Me)]Y(Carboxymethyl)[Bip]Y(Carboxymethyl)[Orn][dL][Dab][Cha][Val(3-OH)]SC[Dab][AEEA]-{NH(CH2)12COOH}; thioether N-14)
8.2	Cc1cccc(C[C@@H]2NC(=O)[C@H](CC(=O)O)NC(=O)[C@H](Cc3ccc(OCC(=O)O)cc3)NC(=O)[C@H](CCCNC(=N)N)NC(=O)CSC[C@@H](C(=O)N[C@@H](CCN)C(=O)NCCCCCCCCCCC(=O)O)NC(=O)[C@H](CCCNC(N)=O)NC(=O)[C@H](C(C)C)NC(=O)[C@H](CC3CCCCC3)NC(=O)[C@H](CCN)NC(=O)[C@@H](CC(C)C)NC(=O)[C@H](CCCN)NC(=O)[C@H](Cc3ccc(OCC(=O)O)cc3)NC(=O)[C@H](Cc3ccc(-c4ccccc4)cc3)NC(=O)[C@H](C(C)C)NC2=O)c1 [Compound 3383] ({CH2CO}-RY(Carboxymethyl)D[Phe(3-Me)]V[Bip]Y(Carboxymethyl)[Orn][dL][Dab][Cha]V[Cit]C[Dab][Aun]-OH; thioether N-14)
11.4	Cc1cccc(C[C@@H]2NC(=O)[C@H](CC(=O)O)NC(=O)[C@H](Cc3ccc(OCC(=O)O)cc3)NC(=O)[C@H](Cc3c[nH]cn3)NC(=O)CSC[C@@H](C(=O)N[C@@H](CCN)C(=O)NCCOCCOCC(=O)NCCOCCOCC(=O)NCCCCCCCCCCCCC(=O)O)NC(=O)[C@H](CO)NC(=O)[C@H](C(C)(C)O)NC(=O)[C@H](CC3CCCCC3)NC(=O)[C@H](CCN)NC(=O)[C@@H](CC(C)C)NC(=O)[C@H](CCCN)NC(=O)[C@H](Cc3ccc(C(=O)O)cc3)NC(=O)[C@H](Cc3ccc(-c4ccccc4)cc3)NC(=O)[C@H](Cc3ccc(C(=O)O)cc3)NC2=O)c1 [Compound 2895] ({CH2CO}-HY(Carboxymethyl)D[Phe(3-Me)][Phe(4-COOH)][Bip][Phe(4-COOH)][Orn][dL][Dab][Cha][Val(3-OH)]SC[Dab][AEEA][AEEA]-{NH(CH2)12COOH}; thioether N-14)
15.5	CC(C)C[C@H]1NC(=O)[C@H](CCCN)NC(=O)[C@H](Cc2ccc(O)cc2)NC(=O)[C@H](Cc2ccc(-c3ccccc3)cc2)NC(=O)[C@H](Cc2ccc(O)cc2)NC(=O)[C@H](Cc2c[nH]c3ccccc23)NC(=O)[C@H](CC(=O)O)NC(=O)[C@H](Cc2ccc(OCC(=O)O)cc2)NC(=O)[C@H]([C@@H](C)O)NC(=O)CSC[C@@H](C(=O)N[C@@H](CCN)C(=O)NCCCCCCCCCCC(=O)O)NC(=O)[C@H](CCCNC(N)=O)NC(=O)[C@H](C(C)C)NC(=O)[C@H](CC2CCCCC2)NC(=O)[C@H](CCN)NC1=O [Compound 2730] ({CH2CO}-TY(Carboxymethyl)DWY[Bip]Y[Orn][dL][Dab][Cha]V[Cit]C[Dab][Aun]-OH; thioether N-14)
7.2	Cc1cccc(C[C@@H]2NC(=O)[C@H](CC(=O)O)NC(=O)[C@H](Cc3ccc(OCC(=O)O)cc3)NC(=O)[C@H](CN)NC(=O)CSC[C@@H](C(=O)N[C@@H](CCN)C(=O)NCCOCCOCC(=O)NCCCCCCCCCCC(=O)O)NC(=O)[C@H](CCCN)NC(=O)[C@H](C(C)C)NC(=O)[C@H](CC3CCCCC3)NC(=O)[C@H](CCN)NC(=O)[C@@H](CC(C)C)NC(=O)[C@H](CCCN)NC(=O)[C@H](Cc3ccc(C(N)=O)cc3)NC(=O)[C@H](Cc3ccc(-c4ccccc4)cc3)NC(=O)[C@H](Cc3ccc(O)cc3)NC2=O)c1 [Compound 2045] ({CH2CO}-[Dap]Y(Carboxymethyl)D[Phe(3-Me)]Y[Bip][Phe(4-CONH2)][Orn][dL][Dab][Cha]V[Orn]C[Dab][AEEA][Aun]-OH; thioether N-14)
10.5	CC(C)C[C@H]1NC(=O)[C@H](CCN)NC(=O)[C@H](C(C)C)NC(=O)[C@H](Cc2ccc(-c3ccccc3)cc2)NC(=O)[C@H](C(C)C)NC(=O)[C@H](Cc2c[nH]c3ccccc23)NC(=O)[C@H](CC(=O)O)NC(=O)[C@H](Cc2ccc(OCC(=O)O)cc2)NC(=O)[C@H](CCCCNC(=N)N)NC(=O)CSC[C@@H](C(=O)N[C@H](CC(N)=O)C(=O)NCCCCCCCCCCC(=O)O)NC(=O)[C@H](CCCN)NC(=O)[C@H](C(C)C)NC(=O)[C@H](CC2CCCCC2)NC(=O)[C@H](CCN)NC1=O [Compound 3277] ({CH2CO}-[hArg]Y(Carboxymethyl)DWV[Bip]V[Dab][dL][Dab][Cha]V[Orn]C[dN][Aun]-OH; thioether N-14)
16.4	Cc1cccc(C[C@@H]2NC(=O)[C@H](CC(=O)O)NC(=O)[C@H](Cc3ccc(OCC(=O)O)cc3)NC(=O)[C@H](CCCNC(=N)N)NC(=O)CSC[C@@H](C(=O)N[C@@H](CCN)C(=O)NCCCCCCCCCCC(=O)O)NC(=O)[C@H]([C@@H](C)O)NC(=O)[C@H](C(C)C)NC(=O)[C@H](CC3CCCCC3)NC(=O)[C@H](CCN)NC(=O)[C@@H](CC(C)C)NC(=O)[C@H](CCCN)NC(=O)[C@H](Cc3ccc(O)cc3)NC(=O)[C@H](Cc3ccc(-c4ccccc4)cc3)NC(=O)[C@H](C(C)(C)F)NC2=O)c1 [Compound 2125] ({CH2CO}-RY(Carboxymethyl)D[Phe(3-Me)][Val(3-F)][Bip]Y[Orn][dL][Dab][Cha]VTC[Dab][Aun]-OH; thioether N-14)
